From PMC7163368 (British Journal of Clinical Pharmacology, 2020)
“And” between values parts separate entries of the source, which are not always exact repeats. Identical values can stand only once.

Key:
[1] = Plasma pharmacokinetics of parenterally administered dutogliptin; format: in vivo, human; conditions: for AUC / AUC(0-inf) / Tmax / k el / half-life / bioavailability: human, plasma
[2] = tested on: DPP‐IV; conditions: oral administration of 400 mg; cited from earlier work

Peak plasma concentration ([1]; 30 mg i.v. (n = 5), day 0, mean (SD)): 2352 (211) ng/mL
Peak plasma concentration ([1]; 30 mg s.c. (n = 5), day 0, mean (SD)): 1232 (97) ng/mL
Peak plasma concentration ([1]; 60 mg s.c. (n = 10), day 0, mean (SD)): 2757 (517) ng/mL
Peak plasma concentration ([1]; 90 mg s.c. (n = 10), day 0, mean (SD)): 3641 (672) ng/mL
Peak plasma concentration ([1]; 120 mg s.c. (n = 10), day 0, mean (SD)): 5093 ng/mL and 5093 (873) ng/mL
Increase in maximal plasma levels ([1]; 120 mg s.c. compared to 500 mg orally administered dutogliptin): > 6 fold
Maximum plasma concentration ([1]; 120 mg s.c. multiple dose, day 6 (n = 5), SD: 544): 6024 ng/mL
AUC ([1]; iv, 30 mg): 4080 ng·h/mL
AUC(0-inf) ([1]; iv, 30 mg): 4090 ng·h/mL
Tmax ([1]; iv, 30 mg): 0.08 h
k el ([1]; iv, 30 mg): 5.56e-05 s⁻¹
half-life ([1]; iv, 30 mg, T1/2, 30 mg i.v. (n = 5), day 0, mean (SD)): 3.68 h
bioavailability ([1]; sc): ~100%
AUC ([1]; sc, 30 mg): 4050 ng·h/mL
AUC(0-inf) ([1]; sc, 30 mg): 4060 ng·h/mL
Tmax ([1]; sc, 30 mg): 0.7 h
bioavailability ([1]; sc, 30 mg): 99%
k el ([1]; sc, 30 mg): 5.83e-05 s⁻¹
half-life ([1]; sc, 30 mg, T1/2, 30 mg s.c. (n = 5), day 0, mean (SD)): 3.37 h
AUC ([1]; sc, 60 mg): 9060 ng·h/mL
AUC(0-inf) ([1]; sc, 60 mg): 9110 ng·h/mL
Tmax ([1]; sc, 60 mg): 0.85 h
bioavailability ([1]; sc, 60 mg): 109%
k el ([1]; sc, 60 mg): 5.56e-05 s⁻¹
half-life ([1]; sc, 60 mg, T1/2, 60 mg s.c. (n = 10), day 0, mean (SD)): 3.58 h
AUC ([1]; sc, 90 mg): 12200 ng·h/mL
AUC(0-inf) ([1]; sc, 90 mg): 12200 ng·h/mL
Tmax ([1]; sc, 90 mg): 0.85 h
bioavailability ([1]; sc, 90 mg): 96%
k el ([1]; sc, 90 mg): 5.56e-05 s⁻¹
half-life ([1]; sc, 90 mg, T1/2, 90 mg s.c. (n = 10), day 0, mean (SD)): 3.64 h
AUC ([1]; sc, 120 mg): 17200 ng·h/mL
AUC(0-inf) ([1]; sc, 120 mg): 17300 ng·h/mL
Tmax ([1]; sc, 120 mg): 0.9 h
bioavailability ([1]; sc, 120 mg): 95%
k el ([1]; sc, 120 mg): 5.83e-05 s⁻¹
half-life ([1]; sc, 120 mg, T1/2, 120 mg s.c. (n = 10), day 0, mean (SD)): 3.32 h
half-life ([1]; sc, Half‐life, subcutaneous injection, pooled, SD: 0.46): 3.49 h
SMILES: O=C(CN[C@@H]1CCNC1)N1CCC[C@H]1B(O)O [dutogliptin]
Accumulation of the study drug ([1]; multiple injections at daily intervals): did not lead to the accumulation of the study drug
Inhibition of DPP‐IV activity [2]: approximately 85%
